Patent US20170159112A1, “AMPLIFIED ISOTHERMAL DETECTION OF POLYNUCLEOTIDES WITH ATP RELEASE” (priority 2015, published 2017)

Experiments:
[1] = target: T1, Klenow fragment exo− polymerase (Escherichia coli, UniProt P00582, D355A/E357A); type: biochemical, E. coli; settings: Kf exo−; for Km / kcat: 37° C., single nucleotide incorporation, mean ± SD of three
T1 construct: Klenow fragment of DNA polymerase I 3′-exonuclease deficient variant, Kf exo^−; purchased New England BioLabs
Source text: Next we performed experiments to quantify the efficiency of ARNs as DNA polymerase substrates. We used published analytical high-resolution gel-based methods to evaluate steady state kinetics of the four nucleotides as substrates during single nucleotide incorporation experiments, with Kf exo^−. We performed similar measurements with the natural dNTPs for comparison.
Steady-State DNA Polymerase Efficiency with Chimeric ATP-Releasing Nucleotides, with Kf Exo^−.
Steady-state kinetics measurements. Steady-state kinetics assays were performed following previously published procedures (Swanson et al. Biochemistry 2011, 50, 7666-7673). The 13mer primer (SEQ ID NO:13, 5′-[…]-3′) was end labeled with T4 polynucleotide kinase and [γ-^32P]-ATP following the manufacturer's protocol. The 20mer template ODNs (SEQ ID NO:14, 5′-[…]-3′, N=A, T, C, G) were annealed with 5′-^32P-labeled 13mer primer as described above. The annealed primer-template duplex (0.05 μM) was incubated with Klenow fragment exo^− polymerase at 37° C. for 5 min in the presence of individual dNTPs or chimeric ATP-linked nucleotides at varied concentrations.
The parameters were adjusted to result in extents of reaction of 20% or less to maintain initial velocity conditions. The reaction was terminated with an equal volume of formamide gel loading buffer (95% formamide, 20 mM EDTA, 0.05% xylene cyanol and bromophenol blue). Extension products were separated on 20% denaturing polyacrylamide gels containing 8 M urea. Gel band intensities of the primer and its extension products were quantified using a Typhoon 9410 Variable Mode Imager. Quantitative imaging of bands was carried out using Image J software to determine the fraction of primer extension. The velocity was plotted as a function of dNTP (or ARN) concentration and fit with the Michaelis-Menten equation to obtain the kinetic parameters, Vmax and Km. Reactions were performed three times and the mean (±standard deviation) of Vmax and Km are reported. The kcat values were calculated by dividing the Vmax with the concentration of polmerase used. The efficiency of nucleotide incorporation was calculated by the ratio Kcat/Km.

Kf (exo-) polymerase = target: T2, Kf (exo-) polymerase (Escherichia coli, UniProt P00582, D355A/E357A); type: biochemical, E. coli; settings: for signal on the T20 template sequence (misincorporation of adenosine ribonucleotide moiety): 20 μM ARN, (T)20 template, Kf polymerase
T2 construct: Klenow fragment of DNA polymerase I 3′-exonuclease deficient variant, Kf exo^−; purchased New England BioLabs
Procedure: polymerase. (A) Primer-template duplexes with (N)20 ends used in this study. (B) Luminescence signals resulting from the incorporation of ATP-linked nucleotides by Kf (exo.) polymerase. The Kf (exo.) polymerase reaction was carried out with 20 μM chimeric nucleotides and 1 μM corresponding primer template at 37° C. for 1 h. 5 μL of polymerase reaction solution were used for the luciferase reaction. […] (C) Kf (exo.) polymerase selectivity with chimeric nucleotides. The reaction was carried out using the (T)20 template and each of the four ARNs under the same reaction conditions as FIG. 2B.
FIG. 5. Selectivity of chimeric nucleotides with Kf (exo-) polymerase. Each of the four chimeric ARNs was supplied with the polymerase and the annealed primer-template duplex immediately upstream of the sequence T20 (A), C20 (B), A20 (C), and G20 (D), respectively. The polymerase reaction contained: 20 μM chimeric nucleotide, 1 μM corresponding primer/template and 1 μL Kf (exo-) polymerase in manufacturer's polymerase reaction buffer. After 1 h incubation at 37° C., 5 μL reaction solutions were added to 95 μL luciferase reaction solution. The bioluminescence signal was recorded at 1 min intervals over 1 h by microplate fluorimeter.
Our initial studies were directed at testing whether these modified nucleotides would be active as substrates for a DNA polymerase. We carried out experiments of primer extension on short synthetic primer/template duplexes (FIG. 2; 1 μM) in the presence of a standard polymerase (Klenow fragment of DNA polymerase I 3′-exonuclease deficient variant, Kf exo^−). We supplied one ARN at a time (20 μM) to its complementary template for one hour; if synthesis were successful it should generate up to ˜20 μM ATP as by-product of the reaction. We removed a small aliquot of the polymerase reaction and measured luminescence from this aliquot containing ATP in a commercial luciferase+luciferin reaction buffer over one hour (FIG. 2B). […] In this latter case we hypothesize the presence of intra- or inter-molecular G quadruplex structures that may inhibit the polymerase, possibly explaining the diminishment of ATP signal. In all four cases, signals were considerably (13-33-fold) higher than background in which primer/template DNA was omitted.
Next we tested sequence selectivity of the chimeric nucleotides, evaluating sixteen combinations of ARNs with the four DNA sequences (FIG. 2C and FIG. 5). In all cases, the correct nucleotide/target sequence combinations yielded much higher signals than incorrect combinations, showing clear nucleotide/template base selectivity. […]
Primer extension and luciferase signaling with short linear test templates. […] The bioluminescence signal was recorded by microplate fluorometer (Fluoroskan Ascent, Thermal). […]

T2 sequence (P00582 324-928 D355A/E357A): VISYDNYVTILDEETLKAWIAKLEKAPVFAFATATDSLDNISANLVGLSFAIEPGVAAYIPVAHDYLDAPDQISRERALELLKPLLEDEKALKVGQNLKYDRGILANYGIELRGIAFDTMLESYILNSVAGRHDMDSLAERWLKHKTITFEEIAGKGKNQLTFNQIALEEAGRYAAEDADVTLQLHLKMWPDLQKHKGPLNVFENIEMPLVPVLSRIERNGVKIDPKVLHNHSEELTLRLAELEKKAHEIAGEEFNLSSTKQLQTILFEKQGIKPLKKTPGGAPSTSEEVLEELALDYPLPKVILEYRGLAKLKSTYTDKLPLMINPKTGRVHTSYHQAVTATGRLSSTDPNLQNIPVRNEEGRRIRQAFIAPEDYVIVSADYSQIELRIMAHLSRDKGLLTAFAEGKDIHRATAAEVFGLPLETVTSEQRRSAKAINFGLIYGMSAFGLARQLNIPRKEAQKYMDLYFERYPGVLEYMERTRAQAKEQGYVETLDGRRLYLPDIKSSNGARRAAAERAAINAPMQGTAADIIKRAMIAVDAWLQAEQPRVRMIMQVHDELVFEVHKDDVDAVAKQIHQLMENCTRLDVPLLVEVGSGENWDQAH
T1 sequence (P00582 324-928 D355A/E357A): as above

Row | SMILES | Km [1] [µM] | kcat [1] [s⁻¹] | kcat/Km less than that of native congener dNTP [1] [fold] | signal on the T20 template sequence (misincorporation of adenosine ribonucleotide moiety) (Kf (exo-) polymerase) | background signal in selectivity experiments (Kf (exo-) polymerase; sixteen combinations of ARNs with four DNA sequences)
1 | Nc1ncnc2c1ncn2[C@H]1C[C@H](O)[C@@H](COP(=O)(O)OP(=O)(O)OP(=O)(O)O)O1 [dATP, reference compound] | 0.35 ± 0.05 | 0.143 ± 0.005 | – | – | –
2 | Nc1ncnc2c1ncn2[C@@H]1O[C@H](COP(=O)(O)OP(=O)(O)OP(=O)(O)OP(=O)(O)OC[C@H]2O[C@@H](n3cnc4c(N)ncnc43)C[C@@H]2O)[C@@H](O)[C@H]1O [dAppppA, Deoxyadenosine-5′-tetraphosphate-P4-5′-Adenosine] | 1.3 ± 0.4 | 0.118 ± 0.0033 | 5 | – | –
3 | Nc1ccn([C@H]2C[C@H](O)[C@@H](COP(=O)(O)OP(=O)(O)OP(=O)(O)O)O2)c(=O)n1 [dCTP, reference compound] | 0.07 ± 0.01 | 0.233 ± 0.0067 | – | – | –
4 | Nc1ccn([C@H]2C[C@H](O)[C@@H](COP(=O)(O)OP(=O)(O)OP(=O)(O)OP(=O)(O)OC[C@H]3O[C@@H](n4cnc5c(N)ncnc54)[C@H](O)[C@@H]3O)O2)c(=O)n1 [dCppppA, Deoxycytidine-5′-tetraphosphate-P4-5′-Adenosine] | 3 ± 0.2 | 0.215 ± 0.0017 | – | lack of enhanced signal | main background signal
5 | Nc1nc2c(ncn2[C@H]2C[C@H](O)[C@@H](COP(=O)(O)OP(=O)(O)OP(=O)(O)O)O2)c(=O)[nH]1 [dGTP, reference compound] | 0.11 ± 0.01 | 0.257 ± 0.0083 | – | – | –
6 | Nc1nc2c(ncn2[C@H]2C[C@H](O)[C@@H](COP(=O)(O)OP(=O)(O)OP(=O)(O)OP(=O)(O)OC[C@H]3O[C@@H](n4cnc5c(N)ncnc54)[C@H](O)[C@@H]3O)O2)c(=O)[nH]1 [dGppppA, Deoxyguanosine-5′-tetraphosphate-P4-5′-Adenosine] | 3.5 ± 0.4 | 0.118 ± 0.0083 | 70 | lack of enhanced signal | –
7 | Cc1cn([C@H]2C[C@H](O)[C@@H](COP(=O)(O)OP(=O)(O)OP(=O)(O)O)O2)c(=O)[nH]c1=O [dTTP, reference compound] | 0.24 ± 0.06 | 0.145 ± 0.005 | – | – | –
8 | Cc1cn([C@H]2C[C@H](O)[C@@H](COP(=O)(O)OP(=O)(O)OP(=O)(O)OP(=O)(O)OC[C@H]3O[C@@H](n4cnc5c(N)ncnc54)[C@H](O)[C@@H]3O)O2)c(=O)[nH]c1=O [dTppppA, Thymidine-5′-tetraphosphate-P4-5′-Adenosine] | 2.2 ± 0.6 | 0.0617 ± 0.0017 | – | lack of enhanced signal | –
